The values that follow come from ChEMBL document CHEMBL4513155, “CO-ADD screening of University of Sydney (Australia) compounds” (2021).

The test system of one experiment is HEK293. Nature of the experiment: cells. It counts as functional. The following applies: Homo sapiens, ATCC CRL1573, HEK293; ASSAY_TEST Inhibition of Cell Viability; detection method Resazurin; Fluorescence (ex560/em590); MEDIA DMEM with 10% FBS; plate type 384well; TC; CORNING #3712; time 18 hr.
Another experiment has as its system Staphylococcus aureus. Kind of experiment: microbe, parasite or virus in culture. The conditions noted are these: ATCC 43300, 18 h, ASSAY_TEST Inhibition of Bacterial Growth, detection method Absorption (OD600), MEDIA CAMHB, plate type 384well, NBS, CORNING #3640.
Another experiment deals with Escherichia coli. Kind of experiment: microbe, parasite or virus in culture. The following applies: ATCC 25922, 18 h, ASSAY_TEST Inhibition of Bacterial Growth, detection method Absorption (OD600), MEDIA CAMHB, plate type 384well, NBS, CORNING #3640.
A further experiment relates to Klebsiella pneumoniae. Nature of the experiment: microbe, parasite or virus in culture. The conditions noted are these: ATCC 700603, 18 h, ASSAY_TEST Inhibition of Bacterial Growth, detection method Absorption (OD600), MEDIA CAMHB, plate type 384well, NBS, CORNING #3640.
Another experiment has as its system Pseudomonas aeruginosa. Nature of the experiment: microbe, parasite or virus in culture. The conditions noted are these: ATCC 27853, 18 h, ASSAY_TEST Inhibition of Bacterial Growth, detection method Absorption (OD600), MEDIA CAMHB, plate type 384well, NBS, CORNING #3640.
A further experiment relates to Acinetobacter baumannii. Kind of experiment: microbe, parasite or virus in culture. The conditions noted are these: ATCC 19606, 18 h, ASSAY_TEST Inhibition of Bacterial Growth, detection method Absorption (OD600), MEDIA CAMHB, plate type 384well, NBS, CORNING #3640.
The next experiment relates to Candida albicans. Kind of experiment: microbe, parasite or virus in culture. The conditions noted are these: ATCC 90028, ASSAY_TEST Inhibition of Fungal Growth, detection method Absorption (OD530), plate type 384well, NBS, CORNING #3640.

Values after ≈ are worked out from the molar mass of the structure shown.

Description for Acinetobacter baumannii: Antibacterial activity against Acinetobacter baumannii ATCC 19606 (CO-ADD:GN_034); MIC in CAMBH media using NBS plates, by OD600
Description for Candida albicans: Antifungal activity against Candida albicans ATCC 90028 (CO-ADD:FG_001); MIC in YNB media using NBS plates, by OD630
Description for Cryptococcus neoformans: Antifungal activity against Cryptococcus neoformans H99 ATCC 208821 (CO-ADD:FG_002); MIC in YNB media using NBS plates, by Resazurin OD(600-570)
Description for Escherichia coli: Antibacterial activity against Escherichia coli ATCC 25922 (CO-ADD:GN_001); MIC in CAMBH media using NBS plates, by OD(600)
Description for Klebsiella pneumoniae: Antibacterial activity against Klebsiella pneumoniae MDR ATCC 70063 (CO-ADD:GN_003); MIC in CAMBH media using NBS plates, by OD(600)
Description for Pseudomonas aeruginosa: Antibacterial activity against Pseudomonas aeruginosa ATCC 27853 (CO-ADD:GN_042); MIC in CAMBH media using NBS plates, by OD(600)
Description for Staphylococcus aureus: Antibacterial activity against Staphylococcus aureus MRSA ATCC 43300 (CO-ADD:GP_020); MIC in CAMBH media, using NBS plates, by OD(600)

On to `Clc1ccc(-c2nnc3cncc(OCCc4ccccc4)n23)cc1`, for which, in the experiment with HEK293, the CC50 (usually the concentration that lowers cell viability or growth by half) came to 21.7 µg/mL (≈ 61.9 µM). Moreover, the MIC in the experiment with Cryptococcus neoformans, in the experiment on Staphylococcus aureus, against Escherichia coli, against Klebsiella pneumoniae, with Pseudomonas aeruginosa and against Acinetobacter baumannii was over 32 µg/mL each time. Besides, the MIC in the experiment with Candida albicans was 0.5 µg/mL (≈ 1.43 µM).
Take `[O-][Cl+3]([O-])([O-])O.[O-][Cl+3]([O-])([O-])O.[Zn].c1ccc2c(-n3cc(CN4CCCNCCN(Cc5cn(-c6cccc7ccccc67)nn5)CCCNCC4)nn3)cccc2c1`: in the experiment on HEK293, the 50% cytotoxic concentration (CC50) came out at 4.89 µg/mL. Also, the MIC against Cryptococcus neoformans is 4 µg/mL; with Staphylococcus aureus, 4 µg/mL; against Escherichia coli, over 32 µg/mL; against Klebsiella pneumoniae, over 32 µg/mL; against Pseudomonas aeruginosa it was over 32 µg/mL; in the experiment with Acinetobacter baumannii it was over 32 µg/mL. This compound also displayed an MIC in the experiment on Candida albicans of over 32 µg/mL.
In the experiment with HEK293, `CCN1C(=O)c2cccc3c(-c4c[n+](CCN5CCCNCCN(CC[n+]6cc(COc7ccc8c(c7)CC[C@@H]7[C@@H]8CC[C@]8(C)C(=O)CC[C@@H]78)[nH]n6)CCCNCC5)n[nH]4)ccc(c23)C1=O.[O-][Cl+3]([O-])([O-])O.[O-][Cl+3]([O-])([O-])O.[Zn+2]` registered a cytotoxic concentration (CC50) of over 32 µg/mL. Moreover, the MIC against Cryptococcus neoformans is 32 µg/mL; against Staphylococcus aureus, 16 µg/mL; against Escherichia coli, over 32 µg/mL; with Klebsiella pneumoniae it was over 32 µg/mL; in the experiment on Pseudomonas aeruginosa, over 32 µg/mL; in the experiment on Acinetobacter baumannii, over 32 µg/mL. In the experiment on Candida albicans, the MIC is over 32 µg/mL.
